Reference: the supplement of paper PMC10307832

Columns and labels:
Assay in all cases: relative viability (nuclei count vs DMSO), 5 days (fraction); higher = more cells survive
NCI-H1666 = tested on: NCI-H1666
In short: (§1)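 Values are medians from duplicate plates. Each reflects relative viability, defined as the nuclei count of treated wells over that of vehicle wells. Lung cancer cell lines in 1536-well plates were pin-tool dosed one day after seeding with one drug alone or with a fixed anchor-drug dose plus five library-drug doses (not always all listed) in √10 steps, then fixed, stained and imaged at 4× after 5 days.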

COR-L 105 = tested on: COR-L 105
In short: as §1

EKVX = tested on: EKVX
In short: as §1

LCLC-97TM1 = tested on: LCLC-97TM1
In short: as §1

NCI-H650 = tested on: NCI-H650
In short: as §1

NCI-H2085 = tested on: NCI-H2085
In short: as §1

NCI-H1437 = tested on: NCI-H1437
In short: as §1

SW 1573 = tested on: SW 1573
In short: as §1

NCI-H2342 = tested on: NCI-H2342
In short: as §1

LOU-NH91 = tested on: LOU-NH91
In short: as §1

NCI-H2087 = tested on: NCI-H2087
In short: as §1

LU99A = tested on: LU99A
In short: as §1

H3255 = tested on: H3255
In short: as §1

NCI-H2170 = tested on: NCI-H2170
In short: as §1

HCC-827 = tested on: HCC-827
In short: as §1

HCC-44 = tested on: HCC-44
In short: as §1

NCI-H647 = tested on: NCI-H647
In short: as §1

201T = tested on: 201T
In short: as §1

EPLC-272H = tested on: EPLC-272H
In short: as §1

BEN = tested on: BEN
In short: as §1

NCI-H1975 = tested on: NCI-H1975
In short: as §1

PC-3 [JPC-3] = tested on: PC-3 [JPC-3]
In short: as §1

Nc1ccn([C@@H]2O[C@H](CO)[C@@H](O)[C@@H]2O)c(=O)n1 [Cytarabine] + Nc1nc2[nH]cc(CCc3ccc(C(=O)N[C@@H](CCC(=O)O)C(=O)O)cc3)c2c(=O)[nH]1 [Pemetrexed] (partner 0.2 µM)
relative viability (NCI-H1666; first compound 0.005 µM): 0.761 | relative viability (NCI-H1666; first compound 0.01581 µM): 0.718 | relative viability (NCI-H1666; first compound 0.05 µM): 0.754 | relative viability (NCI-H1666; first compound 0.1581 µM): 0.655 | relative viability (NCI-H1666; first compound 0.5 µM): 0.616 | relative viability (COR-L 105; first compound 0.005 µM): 0.961 | relative viability (COR-L 105; first compound 0.01581 µM): 1.19 | relative viability (COR-L 105; first compound 0.05 µM): 0.678 | relative viability (COR-L 105; first compound 0.1581 µM): 0.579 | relative viability (COR-L 105; first compound 0.5 µM): 0.383 | relative viability (EKVX; first compound 0.005 µM): 0.473 | relative viability (EKVX; first compound 0.01581 µM): 0.364 | relative viability (EKVX; first compound 0.05 µM): 0.361 | relative viability (EKVX; first compound 0.5 µM): 0.362 | relative viability (LCLC-97TM1; first compound 0.005 µM): 0.209 | relative viability (LCLC-97TM1; first compound 0.01581 µM): 0.179 | relative viability (LCLC-97TM1; first compound 0.05 µM): 0.0983 | relative viability (LCLC-97TM1; first compound 0.1581 µM): 0.108 | relative viability (LCLC-97TM1; first compound 0.5 µM): 0.0633 | relative viability (NCI-H650; first compound 0.005 µM): 0.809 | relative viability (NCI-H650; first compound 0.01581 µM): 0.581 | relative viability (NCI-H650; first compound 0.05 µM): 0.283 | relative viability (NCI-H650; first compound 0.1581 µM): 0.171 | relative viability (NCI-H650; first compound 0.5 µM): 0.157 | relative viability (NCI-H2085; first compound 0.005 µM): 0.788 | relative viability (NCI-H2085; first compound 0.01581 µM): 0.921 | relative viability (NCI-H2085; first compound 0.05 µM): 0.906 | relative viability (NCI-H2085; first compound 0.1581 µM): 0.703 | relative viability (NCI-H2085; first compound 0.5 µM): 0.547 | relative viability (NCI-H1437; first compound 0.005 µM): 0.339 | relative viability (NCI-H1437; first compound 0.01581 µM): 0.344 | relative viability (NCI-H1437; first compound 0.05 µM): 0.335 | relative viability (NCI-H1437; first compound 0.1581 µM): 0.321 | relative viability (NCI-H1437; first compound 0.5 µM): 0.258 | relative viability (SW 1573; first compound 0.005 µM): 0.675 | relative viability (SW 1573; first compound 0.01581 µM): 0.576 | relative viability (SW 1573; first compound 0.05 µM): 0.386 | relative viability (SW 1573; first compound 0.1581 µM): 0.107 | relative viability (SW 1573; first compound 0.5 µM): 0.0809 | relative viability (NCI-H2342; first compound 0.005 µM): 0.667 | relative viability (NCI-H2342; first compound 0.01581 µM): 0.707 | relative viability (NCI-H2342; first compound 0.05 µM): 0.638 | relative viability (NCI-H2342; first compound 0.1581 µM): 0.504 | relative viability (NCI-H2342; first compound 0.5 µM): 0.353 | relative viability (LOU-NH91; first compound 0.005 µM): 0.383 | relative viability (LOU-NH91; first compound 0.01581 µM): 0.395 | relative viability (LOU-NH91; first compound 0.05 µM): 0.379 | relative viability (LOU-NH91; first compound 0.1581 µM): 0.318 | relative viability (LOU-NH91; first compound 0.5 µM): 0.339 | relative viability (NCI-H2087; first compound 0.005 µM): 0.631 | relative viability (NCI-H2087; first compound 0.01581 µM): 0.616 | relative viability (NCI-H2087; first compound 0.05 µM): 0.647 | relative viability (NCI-H2087; first compound 0.1581 µM): 0.57 | relative viability (NCI-H2087; first compound 0.5 µM): 0.283 | relative viability (LU99A; first compound 0.005 µM): 0.22 | relative viability (LU99A; first compound 0.01581 µM): 0.179 | relative viability (LU99A; first compound 0.05 µM): 0.177 | relative viability (LU99A; first compound 0.1581 µM): 0.195 | relative viability (LU99A; first compound 0.5 µM): 0.163 | relative viability (H3255; first compound 0.005 µM): 0.625 | relative viability (H3255; first compound 0.01581 µM): 0.565 | relative viability (H3255; first compound 0.05 µM): 0.506 | relative viability (H3255; first compound 0.1581 µM): 0.526 | relative viability (H3255; first compound 0.5 µM): 0.432 | relative viability (NCI-H2170; first compound 0.005 µM): 0.331 | relative viability (NCI-H2170; first compound 0.01581 µM): 0.291 | relative viability (NCI-H2170; first compound 0.05 µM): 0.333 | relative viability (NCI-H2170; first compound 0.1581 µM): 0.205 | relative viability (NCI-H2170; first compound 0.5 µM): 0.183 | relative viability (HCC-827; first compound 0.005 µM): 0.222 | relative viability (HCC-827; first compound 0.01581 µM): 0.281 | relative viability (HCC-827; first compound 0.05 µM): 0.161 | relative viability (HCC-827; first compound 0.1581 µM): 0.152 | relative viability (HCC-827; first compound 0.5 µM): 0.113 | relative viability (HCC-44; first compound 0.005 µM): 0.717 | relative viability (HCC-44; first compound 0.01581 µM): 0.629 | relative viability (HCC-44; first compound 0.05 µM): 0.67 | relative viability (HCC-44; first compound 0.1581 µM): 0.751 | relative viability (HCC-44; first compound 0.5 µM): 0.774 | relative viability (NCI-H647; first compound 0.005 µM): 0.185 | relative viability (NCI-H647; first compound 0.01581 µM): 0.174 | relative viability (NCI-H647; first compound 0.05 µM): 0.0984 | relative viability (NCI-H647; first compound 0.1581 µM): 0.0797 | relative viability (NCI-H647; first compound 0.5 µM): 0.0683 | relative viability (201T; first compound 0.005 µM): 0.361 | relative viability (201T; first compound 0.01581 µM): 0.353 | relative viability (201T; first compound 0.05 µM): 0.309 | relative viability (201T; first compound 0.1581 µM): 0.325 | relative viability (201T; first compound 0.5 µM): 0.25 | relative viability (EPLC-272H; first compound 0.005 µM): 0.232 | relative viability (EPLC-272H; first compound 0.01581 µM): 0.338 | relative viability (EPLC-272H; first compound 0.05 µM): 0.289 | relative viability (EPLC-272H; first compound 0.1581 µM): 0.27 | relative viability (EPLC-272H; first compound 0.5 µM): 0.222 | relative viability (BEN; first compound 0.005 µM): 0.632 | relative viability (BEN; first compound 0.01581 µM): 0.512 | relative viability (BEN; first compound 0.05 µM): 0.383 | relative viability (BEN; first compound 0.1581 µM): 0.366 | relative viability (BEN; first compound 0.5 µM): 0.287 | relative viability (NCI-H1975; first compound 0.005 µM): 0.255 | relative viability (NCI-H1975; first compound 0.01581 µM): 0.287 | relative viability (NCI-H1975; first compound 0.05 µM): 0.297 | relative viability (NCI-H1975; first compound 0.1581 µM): 0.28 | relative viability (NCI-H1975; first compound 0.5 µM): 0.266 | relative viability (PC-3 [JPC-3]; first compound 0.005 µM): 1 | relative viability (PC-3 [JPC-3]; first compound 0.01581 µM): 0.914 | relative viability (PC-3 [JPC-3]; first compound 0.05 µM): 0.616 | relative viability (PC-3 [JPC-3]; first compound 0.1581 µM): 0.557 | relative viability (PC-3 [JPC-3]; first compound 0.5 µM): 0.716
